Tested on: CTLL-2 (ATCC TIB-214) cytotoxic T lymphocytes
Experiment: In vitro screening platform for immunomodulation, CTLL-2 T-lymphocyte density
Format: cell-based
Description: An in vitro screening platform for immunomodulation was used to evaluate mebenzadole for efficacy. CTLL-2 (ATCC® TIB-214™) are cytotoxic T lymphocytes that were purchased and cultured according to ATCC protocol. […] The maximum volume added to the 1 mL of each of the 12 wells was 10 μL for the highest test concentration of mebenzadole and the control.

For COC(=O)Nc1nc2ccc(C(=O)c3ccccc3)cc2[nH]1 [mebendazole, methyl 5-benzoylbenzimidazole-2-carbamate], the “effect on T-lymphocytes (FIG. 1)” value (CTLL-2 cell culture, 1 nM to 1 μM) was “dose dependently kill T-lymphocytes”, the “test concentration at which significant reduction of T-lymphocytes starts” value (CTLL-2 cell culture, mebendazole in DMSO, 1 nM, 5 nM, 500 nM and 1 μM tested vs DMSO control) was 1 nM and the “concentration at which significant reduction of CD+8 T cells starts, as mass concentration” value (in DMSO, equivalent given for 1 nM) was 0.295 μg per mL.

— patent US20250241898A1, “Topical Benzimidazole Formulations and Methods for Use in Treating Inflammatory Dermatoses” (JJR&D, LLC, priority 2022, published 2025)
